Assay results: ChEMBL document CHEMBL1148657, “Diels-Alder/thiol-olefin co-oxygenation approach to antimalarials incorporating the 2,3-dioxabicyclo[3.3.1]nonane pharmacophore” (Bioorg Med Chem Lett, 2006)

Each compound was assayed on Plasmodium falciparum (assay: Antimalarial activity against chloroquine-resistant Plasmodium falciparum K1). Conditions: not given.
Format: functional, organism-based
Compound `CC(=O)OC1(C)CCC2CC1OO[C@]2(/C=C\c1ccccc1)c1ccccc1` (stereo partly drawn) has an IC50 of 23 nM.

Same assay, conditions: Plasmodium falciparum, K1
For `CC(=O)OC1(C)CCC2CC1OO[C@]2(CS(=O)(=O)c1ccccc1)c1ccccc1` (stereo partly drawn), the IC50 was 72 nM. `CC1(O)CCC2CC1OO[C@]2(CSc1ccc(Cl)cc1)c1ccccc1` (stereo partly drawn) gave an IC50 of 247 nM. `CC1(O)CCC2CC1OO[C@@]2(CS(=O)(=O)c1ccccc1)c1ccccc1` (stereo partly drawn) showed an IC50 of 92 nM. `CC1(O)CCC2CC1OO[C@@]2(CS(=O)(=O)c1ccc(Cl)cc1)c1ccccc1` (stereo partly drawn) was tested, and the IC50 was 107 nM. Compound `O=C(CS(=O)(=O)c1ccccc1)c1ccccc1` has an IC50 of 1000 nM. Compound `CC1(O)CCC2CC1OO[C@]2(CS(=O)(=O)c1ccc(Cl)cc1)c1ccccc1` (stereo partly drawn) has an IC50 of 225 nM. Work on `CC(=O)OC1(C)CCC2CC1OO[C@@]2(CS(=O)(=O)c1ccccc1)c1ccccc1` (stereo partly drawn) yielded an IC50 of 42 nM. For `C[C@@H]1C(=O)C[C@H]2C[C@@H]1OO[C@@]2(C)/C=C\c1ccc(C(F)(F)F)cc1C(F)(F)F` [ARTEFLENE], the IC50 was 76 nM. Work on `CC1(O)CCC2CC1OO[C@]2(CS(=O)(=O)c1ccccc1)c1ccccc1` (stereo partly drawn) yielded an IC50 of 230 nM. With `CC(=O)OC1(C)CCC2CC1OO[C@]2(/C=C\c1ccccc1)c1ccccc1` (stereo partly drawn) the IC50 was 34 nM. `CC1(O)CCC2CC1OO[C@@]2(CSc1ccccc1)c1ccccc1` (stereo partly drawn) gave an IC50 of 81 nM. With `CC(=O)OC1(C)CCC2CC1OO[C@]2(CSc1ccccc1)c1ccccc1` (stereo partly drawn) the IC50 was 164 nM. `CC(=O)OC1(C)CCC2CC1OO[C@@]2(CSc1ccccc1)c1ccccc1` (stereo partly drawn) gave an IC50 of 124 nM. Compound `CC1(O)CCC2CC1OO[C@]2(CSc1ccccc1)c1ccccc1` (stereo partly drawn) has an IC50 of 298 nM. `CC1(O)CCC2CC1OO[C@@]2(CSc1ccc(Cl)cc1)c1ccccc1` (stereo partly drawn) was tested, and the IC50 was 541 nM.

Each compound was assayed on Plasmodium falciparum (assay: Antimalarial activity against Plasmodium falciparum NF54). Conditions: not given.
Format: functional, organism-based
`CC1(OCc2ccccc2)CCC2CC1OO[C@@]2(C)CS(=O)(=O)c1ccccc1` (stereo partly drawn) showed an IC50 of 6.5 nM. `C[C@@H]1CC[C@H]2[C@@H](C)C(=O)O[C@@H]3O[C@@]4(C)CC[C@@H]1[C@]32OO4` [ARTEMISININ] showed an IC50 of 8.9 nM.
